Source: ChEMBL document CHEMBL1145279, “Discovery and development of dimeric podocarpic acid leads as potent agonists of liver X receptor with HDL cholesterol raising activity in mice and hamsters” (Bioorg Med Chem Lett, 2005)

Experiments:
[1] = biological target: T1, Oxysterols receptor LXR-beta (Homo sapiens, UniProt P55055); assay: Effective concentration against liver X receptor-beta in HEK293 cell transactivation assay; assay type: cell-based
T1 sequence (P55055 whole entry): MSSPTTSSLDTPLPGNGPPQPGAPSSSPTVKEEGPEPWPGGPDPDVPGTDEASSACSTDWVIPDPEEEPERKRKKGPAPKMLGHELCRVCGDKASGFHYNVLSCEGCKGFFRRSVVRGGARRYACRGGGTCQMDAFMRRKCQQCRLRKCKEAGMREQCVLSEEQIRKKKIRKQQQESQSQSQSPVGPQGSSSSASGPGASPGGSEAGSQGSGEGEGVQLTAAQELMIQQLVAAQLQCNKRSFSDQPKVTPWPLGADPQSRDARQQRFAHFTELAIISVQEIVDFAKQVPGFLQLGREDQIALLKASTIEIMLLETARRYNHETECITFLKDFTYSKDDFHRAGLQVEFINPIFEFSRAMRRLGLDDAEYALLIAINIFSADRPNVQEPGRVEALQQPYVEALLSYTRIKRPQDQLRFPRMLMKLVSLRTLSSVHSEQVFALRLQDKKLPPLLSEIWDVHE

[2] = biological target: T2, Oxysterols receptor LXR-alpha (Homo sapiens, UniProt Q13133); assay: Effective concentration against liver X receptor-alpha in HEK293 cell transactivation assay; assay type: cell-based
T2 sequence (Q13133 whole entry): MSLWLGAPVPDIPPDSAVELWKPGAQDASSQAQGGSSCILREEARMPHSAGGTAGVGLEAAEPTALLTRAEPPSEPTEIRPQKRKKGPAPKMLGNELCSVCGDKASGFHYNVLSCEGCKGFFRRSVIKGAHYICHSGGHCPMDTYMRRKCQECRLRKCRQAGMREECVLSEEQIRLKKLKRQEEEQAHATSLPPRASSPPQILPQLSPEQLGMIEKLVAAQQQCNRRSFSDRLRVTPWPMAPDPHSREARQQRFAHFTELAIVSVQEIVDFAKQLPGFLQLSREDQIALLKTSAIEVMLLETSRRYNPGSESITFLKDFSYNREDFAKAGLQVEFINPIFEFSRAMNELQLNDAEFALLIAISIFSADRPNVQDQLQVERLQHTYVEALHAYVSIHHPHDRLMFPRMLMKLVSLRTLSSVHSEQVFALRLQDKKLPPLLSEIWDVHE

[3] = biological target: T2, Oxysterols receptor LXR-alpha; assay: Displacement of [3H2]-F3-methyl AA (1) from liver X receptor-alpha in SPA assay
[4] = biological target: T2, Oxysterols receptor LXR-alpha; assay: Effective concentration for cofactor association with recombinant liver X receptor-alpha
[5] = biological target: T1, Oxysterols receptor LXR-beta; assay: Displacement of [3H2]-F3-methyl AA (1) from liver X receptor-beta in SPA assay
[6] = biological target: T1, Oxysterols receptor LXR-beta; assay: Effective concentration for cofactor association with recombinant liver X receptor-beta
[7] = biological target: T1, Oxysterols receptor LXR-beta; assay: Displacement of [3H2]-F3-methyl AA (1) from liver X receptor-beta in SPA assay; Not active
[8] = biological target: T1, Oxysterols receptor LXR-beta; assay: Effective concentration for cofactor association with recombinant liver X receptor-beta; Not active
[9] = biological target: T2, Oxysterols receptor LXR-alpha; assay: Effective concentration for cofactor association with recombinant liver X receptor-alpha; Not active
[10] = biological target: T2, Oxysterols receptor LXR-alpha; assay: Displacement of [3H2]-F3-methyl AA (1) from liver X receptor-alpha in SPA assay; Not active
[11] = biological target: T3, Oxysterols receptor LXR-alpha (Homo sapiens) (UniProt Q13133); assay: Percent inhibition of [3H2]-F3-methyl AA (1) binding to liver X receptor-alpha at 100 uM
T3 sequence (whole entry): T2 sequence (Q13133 whole entry)

[12] = biological target: T4, Oxysterols receptor LXR-beta (Homo sapiens) (UniProt P55055); assay: Percent inhibition of [3H2]-F3-methyl AA (1) binding to liver X receptor-beta at 100 uM
T4 sequence (whole entry): T1 sequence (P55055 whole entry)

SMILES	EC50 [2]	IC50 [3]	EC50 [4]	IC50 [5]	EC50 [6]	IC50 [7]	EC50 [8]	EC50 [9]	IC50 [10]	also measured
CC(=O)Oc1ccc2c(c1)[C@@]1(C)CCCC(C)(C(=O)OC(=O)[C@@]3(C)CCC[C@]4(C)c5cc(OC(C)=O)ccc5CC[C@@H]34)[C@@H]1CC2 (stereo partly specified)	10 nM	2 nM	2 nM	2 nM	0.002 µM					EC50 [1]: 10 nM
C[C@]1(C(=O)O)CCC[C@]2(C)c3cc(OP(=O)(O)Oc4ccc5c(c4)[C@@]4(C)CCC[C@](C)(C(=O)O)[C@@H]4CC5)ccc3CC[C@@H]12						Not Active	Not Active	Not Active	Not Active	
C[C@]1(C(=O)O)CCC[C@]2(C)c3cc(O)ccc3CC[C@@H]12 [PODOCARIC ACID]		> 50000 nM	> 50000 nM	> 50000 nM	> 50 µM					
CC(C)CC[C@@H](O)[C@@H](C)[C@H]1CC[C@H]2[C@@H]3CC=C4C[C@@H](O)CC[C@]4(C)[C@H]3CC[C@]12C [22(R)-HYDROXYCHOLESTEROL]			15000 nM		15 µM					inhibition [11]: 70%; inhibition [12]: 60%
CCCc1c(OCCCSc2ccc(CC(=O)O)cc2Cl)ccc2c(C(F)(F)F)noc12	1790 nM	35.4 nM	35.4 nM							EC50 ([2]; hek293): 1790 nM
CC1OC(Oc2cc3c(cc2-c2cc4c(cc2O)[C@@]2(C)CCC[C@](C)(C(=O)O)[C@@H]2CC4)CC[C@H]2[C@@](C)(C(=O)O)CCC[C@]32C)C(O)C(O)C1O (stereo partly specified)						Not Active	Not Active	Not Active	Not Active	
